According to a compilation of properties of binary mixtures (doi:10.1016/j.molliq.2019.03.034):

Experiment: xn = mol fraction of the nth substance listed
Conditions: 100 kPa

C[N+](C)(C)Cc1ccccc1.[Cl-] + O
viscosity [mPa·s]
Conditions | 298.15 K | 303.15 K | 308.15 K | 313.15 K | 318.15 K
x1 = 0.0001 | 0.895 | 0.806 | 0.723 | 0.627 | 0.541
x1 = 0.0003 | 0.897 | 0.808 | 0.726 | 0.623 | 0.537
x1 = 0.0005 | 0.901 | – | 0.73 | 0.638 | 0.552
